Laboratory results reported in patent US20260062422A1 (Halda Therapeutics OpCo, Inc., priority 2022, published 2026).

Assays:
[1] = test system: VCaP cells; test: Cellular growth inhibition assay for VCaP cells, CellTiter-Glo; format: cell-based, human; settings: Homo sapiens, VCaP, 72 h, 72 hours treatment, CellTiter-Glo 2.0
How it was run: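 GI50 values come from four-parameter curve fits of luminescence data normalized to a zero baseline. Compound, in medium with 0.5% DMSO, was added one day after plating and left for 72 h before CellTiter-Glo 2.0 addition.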

[2] = test system: T-Rex 293 cell line SC3 cells lacking increased expression of androgen receptor protein; test: Cellular growth inhibition, T-Rex 293 SC3 cells without doxycycline, CellTiter-Glo; format: cell-based; settings: 72 h, T-Rex 293 SC3 cells not exposed to doxycycline, CellTiter-Glo 2.0
How it was run: (§1)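 Doxycycline-inducible androgen receptor T-Rex 293 clone SC3, seeded at 2500/well in phenol red-free DMEM with 10% charcoal-dextran FBS, without doxycycline or with 10 ng/mL to induce receptor. Compound added after 24 h (0.5% DMSO), 72 h at 37 °C; CellTiter-Glo 2.0 luminescence, GI50 by four-parameter fit.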

[3] = test system: T-Rex 293 cell line SC3 cells having increased expression of androgen receptor protein due to exposure to doxycycline; test: Cellular growth inhibition, T-Rex 293 SC3 cells with doxycycline (androgen receptor induced), CellTiter-Glo; format: cell-based; settings: 72 h, T-Rex 293 SC3 cells with 10 ng/mL doxycycline (increased androgen receptor expression)
How it was run: as §1

[4] = test system: T47D cells; test: Cellular growth inhibition assay for T47D cells, CellTiter-Glo; format: cell-based, human; settings: Homo sapiens, T47D, 72 h, 72 hours treatment, CellTiter-Glo 2.0 cell viability
How it was run: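 Growth inhibition as GI50, fitted with four parameters to CellTiter-Glo luminescence after 72 h of compound exposure (0.5% DMSO). Cells were T47D, grown in insulin-supplemented (0.2 units/mL) DMEM with 10% FBS and treated one day post-seeding.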

| GI50 [1] | GI50 [4] | SMILES | GI50 [2] | GI50 [3] |
| --- | --- | --- | --- | --- |
| < 500 nM | < 500 nM | Cc1sc2c(c1C)C(c1ccc(CN3CCO[C@@H](CNc4ncc(C(=O)N[C@H]5C(C)(C)[C@H](Oc6ccc(C#N)c(Cl)c6)C5(C)C)cn4)C3)cc1)=N[C@@H](Cc1ncco1)c1nnc(C)n1-2 [Compound I-334] | < 500 nM | < 500 nM |
| 500 to 1500 nM | 500 to 1500 nM | Cc1sc2c(c1C)C(c1ccc(CN(C)C(=O)CN(C)c3ncc(C(=O)N[C@H]4C(C)(C)[C@H](Oc5ccc(C#N)c(Cl)c5)C4(C)C)cn3)cc1)=N[C@@H](Cc1ncco1)c1nnc(C)n1-2 [Compound I-335] | > 3000 nM | < 500 nM |
| 500 to 1500 nM | < 500 nM | Cc1sc2c(c1C)C(c1ccc(N3CCCC(C(=O)N4CCC[C@H](c5ncc(C(=O)N[C@H]6C(C)(C)[C@H](Oc7ccc(C#N)c(Cl)c7)C6(C)C)cn5)C4)C3)cc1)=N[C@@H](Cc1ncco1)c1nnc(C)n1-2 (stereo partly shown) [Compound I-336] | 500 to 1500 nM | < 500 nM |
| < 500 nM | < 500 nM | Cc1sc2c(c1C)C(c1ccc(N3CCC[C@H](C(=O)N4CCC[C@@H](c5ncc(C(=O)N[C@H]6C(C)(C)[C@H](Oc7ccc(C#N)c(Cl)c7)C6(C)C)cn5)C4)C3)cc1)=N[C@@H](Cc1ncco1)c1nnc(C)n1-2 [Compound I-337] | 500 to 1500 nM | < 500 nM |
| > 3000 nM | > 3000 nM | Cc1sc2c(c1C)C(c1ccc(N3CCC[C@H](C(=O)N4CCC[C@H](c5ncc(C(=O)N[C@H]6C(C)(C)[C@H](Oc7ccc(C#N)c(Cl)c7)C6(C)C)cn5)C4)C3)cc1)=N[C@H](Cc1ncco1)c1nnc(C)n1-2 [Compound I-338] | > 3000 nM | > 3000 nM |
| > 3000 nM | > 3000 nM | Cc1sc2c(c1C)C(c1ccc(N3CCC[C@H](C(=O)N4CCC[C@@H](c5ncc(C(=O)N[C@H]6C(C)(C)[C@H](Oc7ccc(C#N)c(Cl)c7)C6(C)C)cn5)C4)C3)cc1)=N[C@H](Cc1ncco1)c1nnc(C)n1-2 [Compound I-339] | > 3000 nM | > 3000 nM |
| > 3000 nM | 1500 to 3000 nM | Cc1sc2c(c1C)C(c1ccc(N3CCN(C(=O)c4ncc(C(=O)N[C@H]5C(C)(C)[C@H](Oc6ccc(C#N)c(Cl)c6)C5(C)C)cn4)CC3)cc1)=N[C@@H](Cc1ncco1)c1nnc(C)n1-2 [Compound I-340] | > 3000 nM | > 3000 nM |
| < 500 nM | 500 to 1500 nM | Cc1sc2c(c1C)C(c1ccc(N3CCN(C(=O)c4ncc(C(=O)N[C@H]5C(C)(C)[C@H](Oc6ccc(C#N)c(Cl)c6)C5(C)C)cn4)CC3)cc1)=N[C@H](Cc1ncco1)c1nnc(C)n1-2 [Compound I-341] | 500 to 1500 nM | 500 to 1500 nM |
| > 3000 nM | > 3000 nM | Cc1sc2c(c1C)C(c1ccc(C(=O)N(C)CCCc3ncc(C(=O)N[C@H]4C(C)(C)[C@H](Oc5ccc(C#N)c(Cl)c5)C4(C)C)cn3)cc1)=N[C@@H](Cc1ncco1)c1nnc(C)n1-2 [Compound I-342] | > 3000 nM | > 3000 nM |
| 1500 to 3000 nM | 1500 to 3000 nM | Cc1sc2c(c1C)C(c1ccc(C(=O)N(C)CCCc3ncc(C(=O)N[C@H]4C(C)(C)[C@H](Oc5ccc(C#N)c(Cl)c5)C4(C)C)cn3)cc1)=N[C@H](Cc1ncco1)c1nnc(C)n1-2 [Compound I-343] | > 3000 nM | 1500 to 3000 nM |
| 500 to 1500 nM | 500 to 1500 nM | Cc1sc2c(c1C)C(c1ccc(C(=O)N3CCC[C@@H](C(=O)c4ncc(C(=O)N[C@H]5C(C)(C)[C@H](Oc6ccc(C#N)c(Cl)c6)C5(C)C)cn4)C3)cc1)=N[C@@H](Cc1ncco1)c1nnc(C)n1-2 [Compound I-344] | > 3000 nM | > 3000 nM |
| > 3000 nM | 1500 to 3000 nM | Cc1sc2c(c1C)C(c1ccc(C(=O)N3CCC[C@H](C(=O)c4ncc(C(=O)N[C@H]5C(C)(C)[C@H](Oc6ccc(C#N)c(Cl)c6)C5(C)C)cn4)C3)cc1)=N[C@@H](Cc1ncco1)c1nnc(C)n1-2 [Compound I-345] | > 3000 nM | > 3000 nM |
| 500 to 1500 nM | > 3000 nM | Cc1sc2c(c1C)C(c1ccc(C(=O)N3CCCC(C(=O)c4ncc(C(=O)N[C@H]5C(C)(C)[C@H](Oc6ccc(C#N)c(Cl)c6)C5(C)C)cn4)C3)cc1)=N[C@H](Cc1ncco1)c1nnc(C)n1-2 (stereo partly shown) [Compound I-346] | > 3000 nM | < 500 nM |
| > 3000 nM | > 3000 nM | Cc1sc2c(c1C)C(c1ccc(COC3CCN(c4ncc(C(=O)N[C@H]5C(C)(C)[C@H](Oc6ccc(C#N)c(Cl)c6)C5(C)C)cn4)CC3)cc1)=N[C@@H](C)c1nnc(C)n1-2 [Compound I-347] | > 3000 nM | > 3000 nM |
| < 500 nM | < 500 nM | Cc1sc2c(c1C)C(c1ccc(CCCN3CC4(C3)CN(c3ncc(C(=O)N[C@H]5C(C)(C)[C@H](Oc6ccc(C#N)c(Cl)c6)C5(C)C)cn3)C4)cc1)=N[C@@H](C)c1nnc(C)n1-2 [Compound I-348] | 1500 to 3000 nM | < 500 nM |
| < 500 nM | < 500 nM | Cc1sc2c(c1C)C(c1ccc(C#CC3CC4(C3)CN(c3ncc(C(=O)N[C@H]5C(C)(C)[C@H](Oc6ccc(C#N)c(Cl)c6)C5(C)C)cn3)C4)cc1)=N[C@@H](C)c1nnc(C)n1-2 [Compound I-349] | < 500 nM | < 500 nM |
| < 500 nM | > 3000 nM | Cc1sc2c(c1C)C(c1ccc(OC[C@H]3C[C@]4(CCCN(c5ncc(C(=O)N[C@H]6C(C)(C)[C@H](Oc7ccc(C#N)c(Cl)c7)C6(C)C)cn5)C4)C3)cc1)=N[C@@H](C)c1nnc(C)n1-2 [Compound I-350] | > 3000 nM | < 500 nM |
| < 500 nM | > 3000 nM | Cc1sc2c(c1C)C(c1ccc(OC[C@H]3C[C@@]4(CCCN(c5ncc(C(=O)N[C@H]6C(C)(C)[C@H](Oc7ccc(C#N)c(Cl)c7)C6(C)C)cn5)C4)C3)cc1)=N[C@@H](C)c1nnc(C)n1-2 [Compound I-351] | > 3000 nM | < 500 nM |
| < 500 nM | > 3000 nM | Cc1sc2c(c1C)C(c1ccc(OC[C@@H]3CCCN(c4ncc(C(=O)N[C@H]5C(C)(C)[C@H](Oc6ccc(C#N)c(Cl)c6)C5(C)C)cn4)C3)cc1)=N[C@@H](C)c1nnc(C)n1-2 [Compound I-352] | > 3000 nM | < 500 nM |
| > 3000 nM | > 3000 nM | Cc1sc2c(c1C)C(c1ccc(CCC[C@@H]3CCCN(c4ncc(C(=O)N[C@H]5C(C)(C)[C@H](Oc6ccc(C#N)c(Cl)c6)C5(C)C)cn4)C3)cc1)=N[C@@H](C)c1nnc(C)n1-2 [Compound I-353] | > 3000 nM | < 500 nM |
| < 500 nM | 1500 to 3000 nM | Cc1sc2c(c1C)C(c1ccc(CCO[C@H]3CCCN(c4ncc(C(=O)N[C@H]5C(C)(C)[C@H](Oc6ccc(C#N)c(Cl)c6)C5(C)C)cn4)C3)cc1)=N[C@@H](C)c1nnc(C)n1-2 [Compound I-354] | > 3000 nM | < 500 nM |
| > 3000 nM | > 3000 nM | Cc1sc2c(c1C)C(c1ccc(N(C)CC(=O)N3CCC(c4ncc(C(=O)N[C@H]5C(C)(C)[C@H](Oc6ccc(C#N)c(Cl)c6)C5(C)C)cn4)CC3)cc1)=N[C@@H](Cc1ncco1)c1nnc(C)n1-2 [Compound I-355] | > 3000 nM | > 3000 nM |
| < 500 nM | 500 to 1500 nM | Cc1sc2c(c1C)C(c1ccc(N(C)CC(=O)N3CCC(c4ncc(C(=O)N[C@H]5C(C)(C)[C@H](Oc6ccc(C#N)c(Cl)c6)C5(C)C)cn4)CC3)cc1)=N[C@H](Cc1ncco1)c1nnc(C)n1-2 [Compound I-356] | > 3000 nM | < 500 nM |
| > 3000 nM | 1500 to 3000 nM | Cc1sc2c(c1C)C(c1ccc(C(=O)N3CCN(CCc4ncc(C(=O)N[C@H]5C(C)(C)[C@H](Oc6ccc(C#N)c(Cl)c6)C5(C)C)cn4)CC3)cc1)=N[C@H](Cc1ncco1)c1nnc(C)n1-2 [Compound I-357] | > 3000 nM | 500 to 1500 nM |
| < 500 nM | 500 to 1500 nM | Cc1sc2c(c1C)C(c1ccc(CN3CC(=O)N4C[C@@H](c5ncc(C(=O)N[C@H]6C(C)(C)[C@H](Oc7ccc(C#N)c(Cl)c7)C6(C)C)cn5)C[C@H]4C3=O)cc1)=N[C@@H](Cc1ncco1)c1nnc(C)n1-2 [Compound I-358] | > 3000 nM | < 500 nM |
| < 500 nM | > 3000 nM | Cc1sc2c(c1C)C(c1ccc([C@H]3CCCCN3C(=O)[C@H]3CCCN(c4ncc(C(=O)N[C@H]5C(C)(C)[C@@H](Oc6ccc(C#N)c(Cl)c6)C5(C)C)cn4)C3)cc1)=N[C@@H](Cc1ncco1)c1nnc(C)n1-2 [Compound I-359] | > 3000 nM | < 500 nM |
| < 500 nM | > 3000 nM | Cc1sc2c(c1C)C(c1ccc([C@@H]3CCCCN3C(=O)[C@H]3CCCN(c4ncc(C(=O)N[C@H]5C(C)(C)[C@@H](Oc6ccc(C#N)c(Cl)c6)C5(C)C)cn4)C3)cc1)=N[C@@H](Cc1ncco1)c1nnc(C)n1-2 [Compound I-360] | > 3000 nM | < 500 nM |
| 1500 to 3000 nM | 1500 to 3000 nM | Cc1sc2c(c1C)C(c1ccc(CN(C)C(=O)NCc3ncc(C(=O)N[C@H]4C(C)(C)[C@H](Oc5ccc(C#N)c(Cl)c5)C4(C)C)cn3)cc1)=N[C@@H](Cc1ncco1)c1nnc(C)n1-2 [Compound I-361] | > 3000 nM | > 3000 nM |
